This passage reports IC50 results from the Kinase Knowledgebase extract (Sharma et al. 2016).

Usually IC50 stands for the concentration at which inhibition is half-maximal. Higher therefore signals a need for much substance.

The target of the first test is ROCK2 (UniProt O75116). The test is described as follows: Inhibition of ROCK2 Kinase Activity.
Chain of ROCK2 (O75116 whole entry, looked up): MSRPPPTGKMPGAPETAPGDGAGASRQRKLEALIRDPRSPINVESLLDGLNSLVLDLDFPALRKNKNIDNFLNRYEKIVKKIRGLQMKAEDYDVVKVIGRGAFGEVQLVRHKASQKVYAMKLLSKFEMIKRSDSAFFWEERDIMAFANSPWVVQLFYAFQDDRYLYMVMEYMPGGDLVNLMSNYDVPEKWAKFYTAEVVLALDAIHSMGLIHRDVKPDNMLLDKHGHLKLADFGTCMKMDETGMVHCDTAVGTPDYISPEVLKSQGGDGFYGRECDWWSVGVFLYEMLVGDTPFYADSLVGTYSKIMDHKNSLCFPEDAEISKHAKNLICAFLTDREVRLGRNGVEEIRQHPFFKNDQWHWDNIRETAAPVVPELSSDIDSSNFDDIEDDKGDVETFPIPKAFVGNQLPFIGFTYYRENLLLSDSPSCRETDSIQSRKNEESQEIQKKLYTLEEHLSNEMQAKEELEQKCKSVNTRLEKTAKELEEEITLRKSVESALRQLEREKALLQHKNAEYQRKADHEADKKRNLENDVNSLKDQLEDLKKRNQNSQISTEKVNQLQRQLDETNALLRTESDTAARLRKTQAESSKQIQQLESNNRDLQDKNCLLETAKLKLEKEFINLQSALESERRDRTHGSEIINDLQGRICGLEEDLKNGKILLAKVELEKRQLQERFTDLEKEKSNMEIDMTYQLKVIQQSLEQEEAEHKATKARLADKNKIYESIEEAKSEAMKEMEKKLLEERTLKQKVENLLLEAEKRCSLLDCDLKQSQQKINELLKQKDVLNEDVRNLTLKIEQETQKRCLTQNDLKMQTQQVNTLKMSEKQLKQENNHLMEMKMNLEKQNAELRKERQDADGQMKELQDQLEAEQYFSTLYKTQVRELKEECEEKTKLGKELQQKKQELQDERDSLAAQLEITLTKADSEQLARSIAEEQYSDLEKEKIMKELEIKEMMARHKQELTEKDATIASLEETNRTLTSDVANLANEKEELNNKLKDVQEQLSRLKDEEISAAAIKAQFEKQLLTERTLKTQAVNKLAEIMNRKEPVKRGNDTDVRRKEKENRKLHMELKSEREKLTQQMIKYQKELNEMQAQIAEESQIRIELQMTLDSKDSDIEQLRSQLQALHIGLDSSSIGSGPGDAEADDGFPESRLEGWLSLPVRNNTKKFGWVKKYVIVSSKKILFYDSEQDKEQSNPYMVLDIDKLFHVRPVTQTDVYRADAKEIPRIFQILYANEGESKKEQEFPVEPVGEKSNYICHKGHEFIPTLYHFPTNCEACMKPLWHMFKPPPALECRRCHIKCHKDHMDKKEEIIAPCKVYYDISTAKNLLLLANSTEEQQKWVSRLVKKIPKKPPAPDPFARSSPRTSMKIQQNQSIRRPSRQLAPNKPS
The compound `Cc1cncc2cccc(S(=O)(=O)N3CCCN(C(=O)CN)CC3)c12` had an IC50 of 37.6 nM. Same read-out and setting: then `C#Cc1cncc2cccc(S(=O)(=O)N3CCCNC[C@@H]3C)c12`, with 6 nM; and `Cc1cncc2cccc(S(=O)(=O)N3CCNCC(C)C3)c12` (stereo unspecified), with 107 nM; and `Cc1cncc2cccc(S(=O)(=O)N3CCNC(C)CC3)c12` (stereo unspecified), with 123 nM. For `Cc1cncc2cccc(S(=O)(=O)N3CCCNC[C@@H]3C(C)C)c12`, the IC50 was found to be 804 nM. As to `CC[C@H]1CNCCCN1S(=O)(=O)c1cccc2cncc(C)c12`, the IC50 amounted to 113 nM.

`C[C@H]1CNCCCN1S(=O)(=O)c1cccc2cncc(Cl)c12` came in with an IC50 of 12.2 nM.

As for `CC(C)(N)[C@H]1CC[C@H](C(=O)Nc2ccncc2)CC1`, the IC50 came to 162 nM. The same measure, in the same setting: for `C[C@H]1CNCCCN1S(=O)(=O)c1cccc2cncc(O)c12` the value was 2750 nM; for `C[C@H]1CN(C(=O)CN)CCCN1S(=O)(=O)c1cccc2cncc(Br)c12`, 42.9 nM; for `Cc1cncc2cccc(S(=O)(=O)N3CCCN(C(=O)CN)C[C@@H]3C)c12`, 11.8 nM. Still for that read-out and setting: then `Cc1cncc2cccc(S(=O)(=O)N3CCCNCC3)c12`, with 96.8 nM; and `C[C@H]1CNCCCN1S(=O)(=O)c1cccc2cncc(C#N)c12`, with 426 nM; and `C[C@H]1CNCCCN1S(=O)(=O)c1cccc2cncc(Br)c12`, with 5.83 nM. As for `CCc1cncc2cccc(S(=O)(=O)N3CCCNC[C@@H]3C)c12`, the IC50 came out at 656 nM. Regarding `NCC(=O)N1CCCN(S(=O)(=O)c2cccc3cnccc23)CC1`, the IC50 amounted to 527 nM.

The compound `C#Cc1cncc2cccc(S(=O)(=O)N3CCCN(C(=O)CN)C[C@@H]3C)c12` gave an IC50 of 42.9 nM. The same measure, in the same setting: for `Cc1cncc2cccc(S(=O)(=O)N3CCCNC(C)C3)c12` (stereo unspecified) the value was 80.6 nM.

The target in the next test is MAPK14 (UniProt Q16539). The test is described as follows: Inhibition of MAPK14 Kinase Activity.
Chain of MAPK14 (Q16539 whole entry, looked up): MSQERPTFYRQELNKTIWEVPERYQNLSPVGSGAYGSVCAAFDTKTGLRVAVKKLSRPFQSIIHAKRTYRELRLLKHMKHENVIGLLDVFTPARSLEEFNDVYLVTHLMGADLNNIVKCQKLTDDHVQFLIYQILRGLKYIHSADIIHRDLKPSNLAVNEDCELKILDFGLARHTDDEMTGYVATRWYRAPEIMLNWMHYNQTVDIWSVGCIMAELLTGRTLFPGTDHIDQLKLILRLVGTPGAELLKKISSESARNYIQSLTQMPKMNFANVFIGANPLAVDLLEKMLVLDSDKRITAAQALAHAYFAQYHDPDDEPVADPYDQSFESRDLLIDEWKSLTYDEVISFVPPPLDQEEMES
Compound `CC(C)(N)[C@H]1CC[C@H](C(=O)Nc2ccncc2)CC1` registered an IC50 greater than 100000 nM. On the same count and under the same terms, then `Cc1cncc2cccc(S(=O)(=O)N3CCCNC[C@@H]3C)c12`, with 100000 nM.

For the next test, the target named is EGFR (UniProt P00533).
Chain of EGFR (P00533 whole entry, looked up): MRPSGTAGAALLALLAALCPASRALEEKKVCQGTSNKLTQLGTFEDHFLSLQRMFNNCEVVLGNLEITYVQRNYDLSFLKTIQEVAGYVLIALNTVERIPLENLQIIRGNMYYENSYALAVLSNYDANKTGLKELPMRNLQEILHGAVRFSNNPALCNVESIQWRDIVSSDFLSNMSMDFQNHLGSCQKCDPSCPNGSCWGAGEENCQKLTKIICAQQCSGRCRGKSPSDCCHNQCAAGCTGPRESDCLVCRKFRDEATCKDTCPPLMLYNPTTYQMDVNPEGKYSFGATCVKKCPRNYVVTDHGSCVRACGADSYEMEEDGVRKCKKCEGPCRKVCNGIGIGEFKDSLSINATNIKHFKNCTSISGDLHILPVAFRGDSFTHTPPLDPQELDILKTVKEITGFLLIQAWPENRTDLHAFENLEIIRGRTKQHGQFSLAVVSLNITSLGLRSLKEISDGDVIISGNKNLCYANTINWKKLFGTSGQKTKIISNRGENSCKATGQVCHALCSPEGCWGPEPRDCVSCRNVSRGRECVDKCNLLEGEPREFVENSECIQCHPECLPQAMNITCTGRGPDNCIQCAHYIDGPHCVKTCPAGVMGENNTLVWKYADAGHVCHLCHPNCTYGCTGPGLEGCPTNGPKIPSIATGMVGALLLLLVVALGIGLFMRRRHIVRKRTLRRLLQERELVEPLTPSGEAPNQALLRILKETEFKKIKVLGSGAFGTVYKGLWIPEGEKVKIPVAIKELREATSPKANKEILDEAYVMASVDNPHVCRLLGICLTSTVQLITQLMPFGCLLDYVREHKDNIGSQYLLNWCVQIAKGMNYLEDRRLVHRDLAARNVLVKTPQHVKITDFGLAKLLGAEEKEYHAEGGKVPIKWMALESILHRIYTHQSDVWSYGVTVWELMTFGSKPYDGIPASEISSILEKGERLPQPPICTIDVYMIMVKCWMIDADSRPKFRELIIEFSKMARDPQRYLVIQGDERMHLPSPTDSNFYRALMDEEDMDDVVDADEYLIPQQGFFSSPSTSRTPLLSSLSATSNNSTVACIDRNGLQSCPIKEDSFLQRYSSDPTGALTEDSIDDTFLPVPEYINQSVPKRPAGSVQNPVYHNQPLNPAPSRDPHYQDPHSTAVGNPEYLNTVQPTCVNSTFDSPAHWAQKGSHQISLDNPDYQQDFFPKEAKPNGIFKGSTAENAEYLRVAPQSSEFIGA
Assay: not given
Regarding `CC(C)(N)[C@H]1CC[C@H](C(=O)Nc2ccncc2)CC1`, the IC50 was 100000 nM.
